The values that follow come from patent publication US7335770B2, “Triazine compounds and their analogs, compositions, and methods” (Reddy U5 Therapeutics, Inc., priority 2004, dated 2008).

Read-outs that look alike come from different tables or passages of the source.

In the test the test system is smooth muscle cells (SMC). In words: anti-proliferation assay (perlecan). The class given is cell-based. The conditions noted are these: for activity in anti-proliferation assay (Perlecan), in words: using the same activity scale used in Table 3; for IC50: anti-proliferation assay (perlecan). The procedure: The activity scale used in Table 3 as follows (numbers are inclusive): “+++” represents IC50 of less than about 3 μM; “++” represents IC50 of between about 3 and about 7 μM; and “+” represents IC50 of greater than about 7 μM. In addition, compounds, to include compositions thereof, encompassed within the scope of structures Ia-XXIVa, respectively, or listed in Tables 1A and 1E may be likewise employed in this embodiment and/or aspect of the present invention. Further, any hydrogen atoms that are required for any atom to attain its usual valence in a structure presented in Table 3, whether a carbon atom or a heteroatom, should be inferred if it is not specifically indicated.
In addition to the above compounds, the following compounds and compositions comprising these compounds are active in an anti-proliferation assay (Perlecan). These compounds and compositions comprising these compounds are, among other things, generally useful for treating cardiovascular disorders associated with proliferative activity. Specifically, these compounds include N^2-cycloheptyl-N^4-(3-fluoro-4-methoxyphenyl)-N^6-methyl-N^6-(1-methyl-piperidin-4-yl)-1,3,5-triazine-2,4,6-triamine, and N^2-cycloheptyl-N^4-methyl-N^4-(1-methyl-piperidin-4-yl)-N^6-naphthalen-2-yl-1,3,5-triazine-2,4,6-triamine.
Methods for identifying the activity and screening for one or more of these compounds or molecules that induce synthesis of proteoglycans such as HSPG (heparan sulfate proteoglycan) are taught in U.S. patent application Ser. No. 10/091,357, which is incorporated herein in its entirety. Assays of effects of compounds in vivo are also taught in the incorporated references and are known to those skilled in the art. In general, methods comprise the addition of such compounds to assays and measurement of HSPG synthesis including, but not limited to, the production of syndecans, glypicans and perlecans, for example, syndecans 1, 2 and 4; and glypican-1. Other assays that can be used to determine the activity of the compounds of the present invention include other methods for measuring the induction of perlecan synthesis. For example, in one assay, perlecan is induced in cells by certain inducers, and the response is measured. Compounds of the present invention are then added to a replicate assay and the effect on perlecan induction is determined. Using such methods, compounds are determined that can either inhibit perlecan, elevate induction of perlecan, or that have no effect at all. Those compounds that are effective as therapeutic agents can then be used in animals, humans or patients with cellular proliferation disease aspects, such as vascular-associated diseases or SMC proliferation pathologies.
Another assay for determining compounds having SMC effects comprises adding a composition suspected of affecting SMC proliferation to smooth muscle cells in growth medium or serum-free medium. The change in cell proliferation can be measured by methods known to those skilled in the art, such as incorporation of labeled nucleotides into dividing cells' DNA, and compared to the proliferation of cells which are not treated with the compound. Other measurements include directly determining levels of HSPG synthesis by measuring the amount or change in amount of HSPG such as with ELISA for HSPGs, and compared to the amount of HSPG synthesis in untreated cells. Other indirect or direct measurement are contemplated by the present invention and are known to those skilled in the art. For example, such methods include, but are not limited to, measurement of RNA levels, RT-PCR, Northern blotting, Western blotting promoter-based assays to identify compounds that affect one or more proteoglycans and assays for proteoglycan biological activity shown by recombinant proteins, partially purified proteins, or lysates from cells expressing proteoglycans in the presence or absence of compounds of interest.

Where [1] appears, read: class of IC50, read-out: Activity (note 1).
Setting [2] is: some cells print no unit, read-out: Avg IC-50.

Regarding `COc1ccc(Nc2nc(NC3CCCCCC3)nc(OC3CCN(C)CC3)n2)cc1Cl` [N-(3-Chloro-4-methoxy-phenyl)-N′-cycloheptyl-6-(1-methyl-piperidin-4-yloxy)-[1,3,5]triazine-2,4-diamine], the “activity in anti-proliferation assay (Perlecan), in words” value (from here on “activity in anti-proliferation assay”) is on record as “high activity”.
As for `CCOc1nc(Nc2ccc(OC)c(F)c2)nc(NC2CCCCCC2)n1` [drawing 601, N-Cycloheptyl-6-ethoxy-N′-(3-fluoro--4-methoxy-phenyl)-[1,3,5]tri-azine-2,4-diamine], the IC50 by setting is: under setting [1], 3 to 7 µM; under setting [2], 4.5 µM.
In the case of `COc1ccc(Nc2nc(NC3CCCCCC3)nc(OC3CCCN(C(C)=O)C3)n2)cc1Cl` (centres unmarked) [1-{3-[4-(3-Chloro-4-methoxy-phenylamino)-6-cycloheptylamino-[1,3,5]triazin-2-yloxy]-piperidin-1-yl}-ethanone], the “activity in anti-proliferation assay” value was “high activity”.
As for `COc1ccc(Nc2nc(NCCN)nc(NC3CCCCCC3)n2)cc1Cl` [drawing 589, N-(2-Amino-ethyl)-N′-(3-Chloro-4-meth-oxy-phenyl)-N″-cyclo-heptyl-[1,3,5]triazine-2,4,6-triamine], the IC50 reads like this: under setting [1], less than 3 µM; under setting [2], 1 µM.
Turning to `CN1CCC(N(C)c2nc(Nc3cccc([N+](=O)[O-])c3)nc(NC3CCCCCC3)n2)CC1` [N-Cycloheptyl-N′-methyl-N′-(1-methyl-piperidin-4-yl)-N″-(3-nitro-phenyl)-[1,3,5]triazine-2,4,6-triamine], the “activity in anti-proliferation assay” value is reported as “high activity”.
`COc1ccc(Nc2nc(NC3CCCCCC3)nc(NC3CCNCC3)n2)cc1Cl` [N-(3-Chloro-4-methoxy-phenyl)-N′-cycloheptyl-N″-piperidin-4-yl-[1,3,5]triazine-2,4,6-triamine]: the “activity in anti-proliferation assay” value was “high activity”.
Take `Cc1ccc(Nc2nc(NC3CCCCCC3)nc(N(C)C3CCN(C)CC3)n2)cc1F` [N-Cycloheptyl-N′-(3-fluoro-4-methyl-phenyl)-N″-methyl-N″-(1-methyl-piperidin-4-yl)-[1,3,5]triazine-2,4,6-triamine]: the “activity in anti-proliferation assay” value is “high activity”.
As to `COc1ccc(Nc2nc(NC3CCCCCC3)nc(OC(C)C)n2)cc1Cl` [drawing 578, N-(3-Chloro-4-methoxy-phenyl)-N′-cyclo-heptyl-6-isopropoxy-[1,3,5]tri-azine-2,4-diamine], the IC50 under setting [1] is 3 to 7 µM and the IC50 under setting [2] worked out at 6.5 µM.
In the same order, the values of `COc1ccc(Nc2nc(NCCNC(=O)CCCCC3SCC4NC(=O)NC43)nc(NC3CCCCCC3)n2)cc1Cl` (centres unmarked) [drawing 597, of 5-(2-Oxo-hexahydro-thi-eno[3,4-d]imidazol-4-yl)-pen-tanoic acid {2,-[4-(3-chloro-4-meth-oxy-phenylamino)-6-cyclo-heptylamino-[1,3,5]triazin-2-yl-amino]-ethyl}-amide] are 3 to 7 µM and 3.2 µM.
Take `COc1ccc(Nc2nc(NC(C)C)nc(Oc3ccc(C#CC(C)(C)O)cc3)n2)cc1Cl` [4-{4-[4-(3-Chloro-4-methoxy-phenylamino)-6-isopropylamino-[1,3,5]triazin-2-yloxy]-phenyl}-2-methyl-but-3-yn-2-ol]: the “activity in anti-proliferation assay” value is “high activity”.
For the molecule `CN1CCC(N(C)c2nc(Nc3cccc(F)c3)nc(NC3CCCCCC3)n2)CC1` [N-Cycloheptyl-N′-(3-fluoro-phenyl)-N″-methyl-N″-(1-methyl-piperidin-4-yl)-[1,3,5]triazine-2,4,6-triamine], the “activity in anti-proliferation assay” value is “high activity”.
Regarding `COc1ccc(Nc2nc(NC3CCCCCC3)nc(OCCOc3ccccc3F)n2)cc1Cl` [N-(3-Chloro-4-methoxy-phenyl)-N′-cycloheptyl-6-[2-(2-fluoro-phenoxy)-ethoxy]-[1,3,5]triazine-2,4-diamine], the “activity in anti-proliferation assay” value is listed as “high activity”.
Take `COc1ccc(Nc2nc(NC(C)C)nc(Oc3ccc(C#CC(C)(C)O)cc3)n2)cc1Cl` [drawing 584, 4-{4-[4-(3-Chloro-4-methoxy-phenyl-amino)-6-isopropylamino-[1,3,5]tri-azin-2-yloxy]-phenyl}-2-meth-yl-but-3-yn-2-ol]: the IC50 is 3 to 7 µM under setting [1] and 3.35 µM under setting [2].
In the same order, the values of `COc1ccc(Nc2nc(NC3CCCCCC3)nc(OCC3CCCO3)n2)cc1Cl` (centres unmarked) [drawing 586, N-(3-Chloro-4-methoxy-phenyl)-N′-cyclo-heptyl-6-(tetrahydro-furan--2-ylmethoxy)-[1,3,5]tri-azine-2,4-diamine] are less than 3 µM and 1.25 µM.
Turning to `COc1ccc(Nc2nc(NCCNC(=O)OC(C)(C)C)nc(NC3CCCCCC3)n2)cc1Cl` [drawing 588, {2-[4-(3-Chloro-4-methoxy-phenyl-amino)-6-cyclo-heptylamino-[1,3,5]triazin-2-yl-amino]-ethyl}-carbamic acidtert-butyl ester], the IC50 under setting [1] was less than 3 µM and the IC50 under setting [2] was 1.25 µM.
In the case of `COc1ccc(Nc2nc(NC3CCCCCC3)nc(OCC3CCCN3C)n2)cc1Cl` (centres unmarked) [drawing 575, N-(3-Chloro-4-methoxy-phenyl)-N′-cyclo-heptyl-6-(1-methyl-pyr-rolidin-2-ylmethoxy)-[1,3,5]tri-azine-2,4-diamine], the IC50 by setting is: under setting [1], 3 to 7 µM; under setting [2], 5 µM.
In the case of `COc1ccc(Nc2nc(NC3CCCCCC3)nc(Oc3ccc(C#CC(C)(C)O)cc3)n2)cc1Cl` [4-{4-[4-(3-Chloro-4-methoxy-phenylamino)-6-cycloheptylamino-[1,3,5]triazin-2-yloxy]-phenyl}-2-methyl-but-3-yn-2-ol], the “activity in anti-proliferation assay” value is “high activity”.
In the case of `COc1ccc(Nc2nc(NNC(=O)CCCCC3SCC4NC(=O)NC43)nc(NC3CCCCCC3)n2)cc1Cl` (centres unmarked) [5-(2-Oxo-hexahydro-thieno[3,4-d]imidazol-4-yl)-pentanoic acid N′-[4-(3-chloro-4-methoxy-phenylamino)-6-cycloheptylamino-[1,3,5]triazin-2-yl]-hydrazide], the “activity in anti-proliferation assay” value was “high activity”.
As for `CCOC(=O)/C=C/c1ccc(Oc2nc(Nc3ccc(OC)c(Cl)c3)nc(NC3CCCCCC3)n2)cc1` [3-{4-[4-(3-Chloro-4-methoxy-phenylamino)-6-cycloheptylamino-[1,3,5]triazin-2-yloxy]-phenyl}-acrylic acid ethyl ester], the “activity in anti-proliferation assay” value is “high activity”.
Take `COc1ccc(Nc2nc(NC3CCCCCC3)nc(OCC3CCCN3C)n2)cc1Cl` (centres unmarked) [N-(3-Chloro-4-methoxy-phenyl)-N′-cycloheptyl-6-(1-methyl-pyrrolidin-2-ylmethoxy)-[1,3,5]triazine-2,4-diamine]: the “activity in anti-proliferation assay” value is “high activity”.
Still for that read-out and setting: under `COc1ccc(Nc2nc(NC3CCCCCC3)nc(Oc3ccccc3I)n2)cc1Cl` [N-(3-Chloro-4-methoxy-phenyl)-N′-cycloheptyl-6-(2-iodo-phenoxy)-[1,3,5]triazine-2,4-diamine] stands “high activity”; under `COc1ccc(Nc2nc(NCCNC(=O)OC(C)(C)C)nc(NC3CCCCCC3)n2)cc1Cl` [{2-[4-(3-Chloro-4-methoxy-phenylamino)-6-cycloheptylamino-[1,3,5]triazin-2-ylamino]-ethyl}-carbamic acid tert-butyl ester], “high activity”.
As for `COc1ccc(Nc2nc(NCCNC(=O)CCCCC3SCC4NC(=O)NC43)nc(NC3CCCCCC3)n2)cc1Cl` (centres unmarked), the “activity in anti-proliferation assay” value is “high activity”.
As to `COc1ccc(Nc2nc(NC3CCCCCC3)nc(-c3c(O)ccc4ccccc34)n2)cc1Cl` [1-[4-(3-Chloro-4-methoxy-phenylamino)-6-cycloheptylamino-[1,3,5]triazin-2-yl]-naphthalen-2-ol], the “activity in anti-proliferation assay” value is given as “high activity”.
